Source: US8623853B2, “Treatment of cancers characterized by chromosomal rearrangement of the NUT gene” (The Brigham and Women's Hospital, Inc., priority 2008, dated 2014)

Columns and labels:
NMC cell lines = assay: SAHA treatment of five NMC cell lines; type: cell-based; conditions: pharmacologic doses
[1] = pharmacologically achievable range; cited from earlier work
NMC (TC797) cells = assay: High-content 384-well assay of proliferation, histone acetylation and keratin expression adapted to NMC culture; type: cell-based
Method: A cell based approach was developed for identifying potent and selective HDAC inhibitors. Nuclear acetylation correlates with inhibition of class I deacetylases such as HDAC1 and HDAC2. An automated epiflourescent assay was therefore developed which is measures histone hyperacetylation. Cells were seeded in 384-well plate format (500 cells/well) and treated with compound. They were then fixed and stained with: a) Hoechst (nuclei); b) primary anti-AcHistone polyclonal Ab; c) anti-Keratin monoclonal antibody; and d) compatible flurophore-conjugated secondary antibodies. After automated image acquisition, a custom analysis program was applied that identifies and masks cells based on nuclear intensity (Hoechst) and then derives quantitative fluorescent data from the FITC (AcHistone) image. Subsequent secondary masks were generated using cytosolic intensity.
We have performed studies of HDAC inhibitor effects on NMC cells in culture using an adaptation of the assay described above. […] In a first attempt at multiplexed detection and quantification of effects on cell proliferation, histone acetylation, and keratin protein expression, we have witnessed clear, dose-response activity of SAHA in the pharmacologically achievable range (Cmax approximately 2 μM).

NMC cells = assay: TSA dose- and time-ranging studies in cultured NMC cells (immunofluorescence, bright-field microscopy, keratin immunohistochemistry); type: cell-based
Method: Studies aimed at testing the hypothesis of HDAC inhibitor therapy in NMC have been conducted using trichostatin A (TSA), and vorinostat (SAHA, Zolinza®). Both of these compounds are regarded as non-selective for class I and II deacetylases and bind HDAC proteins by chelating the active site zinc atom with a hydroxamic acid feature. NMC cells cultured in vitro were treated with TSA in dose- and time-ranging studies. […] With further drug exposure, a differentiation phenotype was observed by bright-field microscopy and by immunohistochemistry for the epithelial differentiation-associated protein, keratin.

| Compound | differentiation (NMC cell lines) | growth (NMC cell lines) | Cmax [1] | histone acetylation (NMC (TC797) cells; dose-ranging, qualitative in images) | cell proliferation (NMC (TC797) cells; multiplexed detection) | keratin protein content (NMC (TC797) cells; multiplexed detection) | differentiation by brightfield microscopy (NMC cells; TSA 25 nM, within 24 hours) | distribution of BRD-NUT and acetylation marks (NMC cells; immunofluorescence microscopy) | histone acetylation (NMC cells; immunofluorescence microscopy, dose- and time-ranging) | cytoplasmic keratin staining (NMC cells; immunohistochemistry) |
| --- | --- | --- | --- | --- | --- | --- | --- | --- | --- | --- |
| O=C(CCCCCCC(=O)Nc1ccccc1)NO [SAHA, suberoylanilide hydroxamic acid] | resulted in differentiation | arrested growth | ~2000 nM | increased histone acetylation | reduction in cell proliferation | induction of increased keratin protein content | – | – | – | – |
| CC(/C=C/C(=O)NO)=C\[C@@H](C)C(=O)c1ccc(N(C)C)cc1 [TSA, trichostatin A] | – | – | – | – | – | – | rapidly differentiate | redistribution of both BRD-NUT and acetylation marks from nuclear speckles to a diffuse pattern | increase in histone acetylation with increasing dose and time of exposure | increases in cytoplasmic keratin staining |
